Assays:
[1] = clinical; conditions: human
[2] = target: 5-hydroxytryptamine receptor 2A (Homo sapiens, UniProt P28223)
Description: Antagonist activity at 5HT2A receptor (unknown origin)

[3] = target: T1, D(2) dopamine receptor (Homo sapiens, UniProt P14416)
Description: Antagonist activity at postsynaptic D2 receptor (unknown origin)

[4] = target: T1, D(2) dopamine receptor; remark: listed apart in the source
Description: Partial agonist activity at presynaptic D2 receptor (unknown origin)

T1 sequence (P14416 whole entry): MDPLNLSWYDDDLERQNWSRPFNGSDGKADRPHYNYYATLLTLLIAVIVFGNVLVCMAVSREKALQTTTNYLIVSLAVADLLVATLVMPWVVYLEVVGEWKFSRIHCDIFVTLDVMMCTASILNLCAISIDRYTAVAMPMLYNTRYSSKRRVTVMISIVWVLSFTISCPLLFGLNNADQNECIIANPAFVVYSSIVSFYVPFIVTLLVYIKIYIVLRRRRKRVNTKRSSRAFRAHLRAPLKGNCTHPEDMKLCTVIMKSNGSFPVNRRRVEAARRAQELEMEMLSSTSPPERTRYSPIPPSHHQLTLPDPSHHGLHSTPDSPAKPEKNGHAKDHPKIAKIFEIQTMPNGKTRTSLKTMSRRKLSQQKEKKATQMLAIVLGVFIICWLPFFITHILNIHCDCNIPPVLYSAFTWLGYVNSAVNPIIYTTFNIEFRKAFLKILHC
5-hydroxytryptamine receptor 2A, sequence (P28223 whole entry): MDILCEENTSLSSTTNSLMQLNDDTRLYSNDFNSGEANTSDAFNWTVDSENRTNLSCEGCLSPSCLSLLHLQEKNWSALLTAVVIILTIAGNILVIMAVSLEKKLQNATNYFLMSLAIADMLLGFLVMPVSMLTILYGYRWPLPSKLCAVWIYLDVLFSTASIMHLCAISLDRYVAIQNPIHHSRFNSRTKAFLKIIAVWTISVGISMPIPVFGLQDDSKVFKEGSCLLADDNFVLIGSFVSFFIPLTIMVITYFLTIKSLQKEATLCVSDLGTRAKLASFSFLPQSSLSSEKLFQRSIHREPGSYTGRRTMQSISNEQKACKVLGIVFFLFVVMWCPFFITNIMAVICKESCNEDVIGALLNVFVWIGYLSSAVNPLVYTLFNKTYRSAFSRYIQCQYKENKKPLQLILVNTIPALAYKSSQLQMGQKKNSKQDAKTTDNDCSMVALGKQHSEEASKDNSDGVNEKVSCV

Compound | half-life [1] [h] | IC50 [2] [nM] | IC50 [3] [nM] | IC50 [4] [nM]
CCn1c(=O)c2c(nc(/C=C/c3ccc(OC)c(OC)c3)n2C)n(CC)c1=O [ISTRADEFYLLINE] | 64 | – | – | –
CN1CCN2c3c(cccc31)[C@@H]1CN(CCCC(=O)c3ccc(F)cc3)CC[C@@H]12 [LUMATEPERONE] | – | 0.54 | 3.2 | 4.1
